Reference: ChEMBL document CHEMBL5385876, “Discovery of unglycosylated indolocarbazoles as ROCK2 isoform-selective inhibitors for the treatment of breast cancer metastasis” (Eur J Med Chem, 2023)
Active and inactive are the calls of the source. The rule behind the calls is not given here.

Tests used:
[1] = biological target: T1, Rho-associated protein kinase 2 (Homo sapiens, UniProt O75116); assay: Inhibition of N-terminal His10-StrepII tagged human ROCK2 catalytic domain (1 to 553 residues) expressed in Sf9 insect cells by HTRF assay
[2] = test system: MDA-MB-231; assay: Antimetastatic activity in human MDA-MB-231 cells assessed as increase in nuclear scales at 5 uM incubated for 24 hrs by FITC-conjugated phalloidin staining based confocal microscopic analysis; assay type: functional, cell-based
[3] = test system: MDA-MB-231; assay: Antimetastatic activity in human MDA-MB-231 cells assessed as appearance of disordered and sparse actin filament at 5 uM incubated for 24 hrs by SEM analysis; assay type: functional, cell-based
[4] = test system: MDA-MB-231; assay: Antimetastatic activity in human MDA-MB-231 cells assessed as effect on cell shapes at 5 uM incubated for 24 hrs by SEM analysis; assay type: functional, cell-based
[5] = test system: MDA-MB-231; assay: Inhibition of cell migration in human MDA-MB-231 cells incubated for 48 hrs by scratch wound healing assay; assay type: functional, cell-based; settings: dose 1.25-10 µM
[6] = Toxicity in BALB/c nude mouse xenografted with human MDA-MB-231 cells harboring Luc-mcherry assessed as reduction in body weight at 15 mg/kg, iv administered once a day for 45 days; assay type: organism-based; settings: in vivo, 1080 h, time 45 day
[7] = test system: MDA-MB-231; assay: Inhibition of cell invasion in human MDA-MB-231 cells incubated for 48 hrs by crystal violet staining based transwell assay; assay type: functional; settings: dose 1.25-10 µM
[8] = test system: MDA-MB-231; assay: Antiproliferative activity against human MDA-MB-231 cells assessed as suppression of cell growth incubated for 72 hrs by SRB assay; assay type: functional, cell-based; settings: MDA-MB-231, 72 h
[9] = test system: SK-OV-3; assay: Antiproliferative activity against human SK-OV-3 cells assessed as suppression of cell growth incubated for 72 hrs by SRB assay; assay type: functional, cell-based; settings: SK-OV-3, 72 h
[10] = test system: MDA-MB-231; assay: Antimetastatic activity against human MDA-MB-231 cells harboring Luc-mcherry xenografted in BALB/c nude mouse at 15 mg/kg, iv administered once a day for 45 days and measured on day 19,30 and 45 by bioluminescence imaging; assay type: functional, organism-based; settings: time 45.0 day
[11] = test system: MDA-MB-231; assay: Downregulation of phosphorylated STAT3 protein expression in human MDA-MB-231 cells at 0.5 uM incubated for 24 hrs by Western blot analysis; assay type: functional, cell-based
[12] = test system: MDA-MB-231; assay: Upregulation of phosphorylated STAT5A protein expression in human MDA-MB-231 cells at 0.5 uM incubated for 24 hrs by Western blot analysis; assay type: functional, cell-based
[13] = AUC (0 to t) in ICR mouse at 15 mg/kg, iv administered as single dose and measured for 8 hrs by LC-MS/MS analysis; assay type: ADME, organism-based; design: time 8 hrs, dose 15 mg/kg, route iv; settings: in vivo
[14] = Cmax in ICR mouse at 15 mg/kg, iv administered as single dose and measured for 8 hrs by LC-MS/MS analysis; assay type: ADME, organism-based; design: time 8 hrs, dose 15 mg/kg, route iv; settings: in vivo
[15] = Clearance in ICR mouse at 15 mg/kg, iv administered as single dose and measured for 8 hrs by LC-MS/MS analysis; assay type: ADME, organism-based; settings: in vivo
[16] = biological target: Rho-associated protein kinase 1 (Homo sapiens, UniProt Q13464); assay: Inhibition of ROCK1 (unknown origin)
[17] = biological target: Inhibitor of nuclear factor kappa-B kinase subunit beta (Homo sapiens, UniProt O14920); assay: Inhibition of IKKbeta (unknown origin)
Inhibitor of nuclear factor kappa-B kinase subunit beta, sequence (O14920 whole entry): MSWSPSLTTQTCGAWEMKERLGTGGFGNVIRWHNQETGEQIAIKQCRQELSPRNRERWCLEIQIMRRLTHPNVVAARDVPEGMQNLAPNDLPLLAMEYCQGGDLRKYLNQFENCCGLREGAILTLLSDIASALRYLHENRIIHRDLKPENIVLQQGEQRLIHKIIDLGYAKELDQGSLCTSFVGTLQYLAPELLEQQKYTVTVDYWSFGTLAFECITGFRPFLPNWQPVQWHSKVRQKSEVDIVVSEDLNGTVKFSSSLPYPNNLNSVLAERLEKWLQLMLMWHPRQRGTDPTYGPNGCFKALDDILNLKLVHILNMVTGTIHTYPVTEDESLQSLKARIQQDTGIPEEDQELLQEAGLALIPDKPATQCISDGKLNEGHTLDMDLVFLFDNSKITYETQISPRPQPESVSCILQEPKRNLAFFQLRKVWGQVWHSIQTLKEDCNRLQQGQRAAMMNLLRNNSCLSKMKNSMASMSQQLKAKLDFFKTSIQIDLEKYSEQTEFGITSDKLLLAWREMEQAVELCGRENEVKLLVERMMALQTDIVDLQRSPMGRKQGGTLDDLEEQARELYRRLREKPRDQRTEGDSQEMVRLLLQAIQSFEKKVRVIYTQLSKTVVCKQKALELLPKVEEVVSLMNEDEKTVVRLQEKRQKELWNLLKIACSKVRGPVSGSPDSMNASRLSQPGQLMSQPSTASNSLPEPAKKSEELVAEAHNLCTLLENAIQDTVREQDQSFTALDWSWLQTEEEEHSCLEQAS

[18] = biological target: Serine/threonine-protein kinase pim-1 (Homo sapiens, UniProt P11309); assay: Inhibition of PIM1 (unknown origin)
Serine/threonine-protein kinase pim-1, sequence (P11309 whole entry): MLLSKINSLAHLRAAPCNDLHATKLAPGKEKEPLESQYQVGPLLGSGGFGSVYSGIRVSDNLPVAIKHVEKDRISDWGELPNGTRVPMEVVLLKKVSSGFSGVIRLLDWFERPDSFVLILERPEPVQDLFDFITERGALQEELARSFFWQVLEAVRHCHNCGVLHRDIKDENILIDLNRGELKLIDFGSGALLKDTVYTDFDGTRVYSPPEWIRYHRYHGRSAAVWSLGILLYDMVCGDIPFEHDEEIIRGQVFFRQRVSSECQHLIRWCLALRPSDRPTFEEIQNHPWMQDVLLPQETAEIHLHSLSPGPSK

[19] = biological target: Serine/threonine-protein kinase PLK1 (Homo sapiens, UniProt P53350); assay: Inhibition of PLK1 (unknown origin)
[20] = Selectivity index, ratio of IC50 for ROCK2 (unknown origin) to IC50 for N-terminal His10-StrepII tagged human ROCK2 catalytic domain (1 to 553 residues) expressed in Sf9 insect cells
[21] = Selectivity index, ratio of IC50 for PKCdelta (unknown origin) to IC50 for N-terminal His10-StrepII tagged human ROCK2 catalytic domain (1 to 553 residues) expressed in Sf9 insect cells
[22] = Oral bioavailability in ICR mouse at 20 mg/kg administered as single dose and measured for 8 hrs by LC-MS/MS analysis; assay type: ADME, organism-based; settings: in vivo
[23] = Drug uptake in lung of ICR mouse at 15 mg/kg, iv administered as single dose and measured after 0.25 to 4 hrs by LC-MS/MS analysis; assay type: ADME, organism-based; settings: in vivo, time 0.25-4 hrs
[24] = biological target: Signal transducer and activator of transcription 3 (Homo sapiens) (UniProt P40763); assay: Inhibition of STAT3 activation in human MDA-MB-231 cells assessed as reduction in STAT3 phosphorylation at Y705 residue at 1.25 to 10 uM incubated for 24 hrs by Western blot analysis; assay type: cell-based; settings: dose 1.25-10 µM
Signal transducer and activator of transcription 3 (Homo sapiens), sequence (P40763 whole entry): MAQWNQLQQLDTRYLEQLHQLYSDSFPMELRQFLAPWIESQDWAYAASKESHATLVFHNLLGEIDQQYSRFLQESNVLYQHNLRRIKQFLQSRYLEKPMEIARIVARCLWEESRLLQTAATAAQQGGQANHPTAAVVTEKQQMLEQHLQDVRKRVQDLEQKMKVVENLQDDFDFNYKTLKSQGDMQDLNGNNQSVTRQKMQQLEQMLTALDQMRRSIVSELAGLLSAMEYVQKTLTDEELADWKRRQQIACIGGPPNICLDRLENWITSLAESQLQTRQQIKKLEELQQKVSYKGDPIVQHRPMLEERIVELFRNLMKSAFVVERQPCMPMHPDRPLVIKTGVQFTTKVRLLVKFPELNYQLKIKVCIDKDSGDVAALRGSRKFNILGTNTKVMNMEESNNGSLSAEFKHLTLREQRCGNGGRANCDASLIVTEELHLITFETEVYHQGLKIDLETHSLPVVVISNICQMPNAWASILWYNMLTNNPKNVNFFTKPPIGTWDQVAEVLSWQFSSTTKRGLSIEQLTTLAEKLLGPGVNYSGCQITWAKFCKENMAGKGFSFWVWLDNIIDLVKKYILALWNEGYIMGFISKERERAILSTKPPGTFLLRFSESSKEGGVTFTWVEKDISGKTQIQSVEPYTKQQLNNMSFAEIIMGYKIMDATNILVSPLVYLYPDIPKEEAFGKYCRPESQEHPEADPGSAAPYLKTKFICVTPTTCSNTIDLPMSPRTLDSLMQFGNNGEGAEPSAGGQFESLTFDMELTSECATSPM

[25] = biological target: Signal transducer and activator of transcription 3 (Homo sapiens) (UniProt P40763); assay: Inhibition of STAT3 activation in human MDA-MB-231 cells assessed as reduction in phosphorylated STAT3 nuclear translocation at 5 uM incubated for 24 hrs by immunofluorescence analysis; assay type: cell-based
[26] = biological target: Signal transducer and activator of transcription 3 (Homo sapiens) (UniProt P40763); assay: Inhibition of STAT3 transcriptional activity in human MDA-MB-231 cells assessed as reduction in MMP2 mRNA level at 5 uM incubated for 24 hrs by qRT-PCR analysis; assay type: cell-based
[27] = test system: MDA-MB-231; assay: Inhibition of IL-6 stimulated cell invasion in human MDA-MB-231 cells at 5 uM incubated for 24 hrs by crystal violet staining based transwell assay; assay type: functional
[28] = biological target: T1, Rho-associated protein kinase 2; assay: Binding affinity to wild type N-terminal His10-StrepII tagged human ROCK2 catalytic domain (1 to 553 residues) expressed in Sf9 insect cells assessed as change in melting temperature at 50 uM by SYPRO orange dye based thermal shift assay
[29] = test system: Rho-associated protein kinase 2 (Homo sapiens), O75116 [K121A]; assay: Binding affinity to N-terminal His10-StrepII tagged human ROCK2 K121A mutant catalytic domain (1 to 553 residues) expressed in Sf9 insect cells assessed as change in melting temperature at 50 uM by SYPRO orange dye based thermal shift assay
[30] = test system: Rho-associated protein kinase 2 (Homo sapiens), O75116 [D232A]; assay: Binding affinity to N-terminal His10-StrepII tagged human ROCK2 D232A mutant catalytic domain (1 to 553 residues) expressed in Sf9 insect cells assessed as change in melting temperature at 50 uM by SYPRO orange dye based thermal shift assay
Rho-associated protein kinase 2 (Homo sapiens), O75116 [D232A], sequence (O75116 whole entry D232A, the tested form may be a part): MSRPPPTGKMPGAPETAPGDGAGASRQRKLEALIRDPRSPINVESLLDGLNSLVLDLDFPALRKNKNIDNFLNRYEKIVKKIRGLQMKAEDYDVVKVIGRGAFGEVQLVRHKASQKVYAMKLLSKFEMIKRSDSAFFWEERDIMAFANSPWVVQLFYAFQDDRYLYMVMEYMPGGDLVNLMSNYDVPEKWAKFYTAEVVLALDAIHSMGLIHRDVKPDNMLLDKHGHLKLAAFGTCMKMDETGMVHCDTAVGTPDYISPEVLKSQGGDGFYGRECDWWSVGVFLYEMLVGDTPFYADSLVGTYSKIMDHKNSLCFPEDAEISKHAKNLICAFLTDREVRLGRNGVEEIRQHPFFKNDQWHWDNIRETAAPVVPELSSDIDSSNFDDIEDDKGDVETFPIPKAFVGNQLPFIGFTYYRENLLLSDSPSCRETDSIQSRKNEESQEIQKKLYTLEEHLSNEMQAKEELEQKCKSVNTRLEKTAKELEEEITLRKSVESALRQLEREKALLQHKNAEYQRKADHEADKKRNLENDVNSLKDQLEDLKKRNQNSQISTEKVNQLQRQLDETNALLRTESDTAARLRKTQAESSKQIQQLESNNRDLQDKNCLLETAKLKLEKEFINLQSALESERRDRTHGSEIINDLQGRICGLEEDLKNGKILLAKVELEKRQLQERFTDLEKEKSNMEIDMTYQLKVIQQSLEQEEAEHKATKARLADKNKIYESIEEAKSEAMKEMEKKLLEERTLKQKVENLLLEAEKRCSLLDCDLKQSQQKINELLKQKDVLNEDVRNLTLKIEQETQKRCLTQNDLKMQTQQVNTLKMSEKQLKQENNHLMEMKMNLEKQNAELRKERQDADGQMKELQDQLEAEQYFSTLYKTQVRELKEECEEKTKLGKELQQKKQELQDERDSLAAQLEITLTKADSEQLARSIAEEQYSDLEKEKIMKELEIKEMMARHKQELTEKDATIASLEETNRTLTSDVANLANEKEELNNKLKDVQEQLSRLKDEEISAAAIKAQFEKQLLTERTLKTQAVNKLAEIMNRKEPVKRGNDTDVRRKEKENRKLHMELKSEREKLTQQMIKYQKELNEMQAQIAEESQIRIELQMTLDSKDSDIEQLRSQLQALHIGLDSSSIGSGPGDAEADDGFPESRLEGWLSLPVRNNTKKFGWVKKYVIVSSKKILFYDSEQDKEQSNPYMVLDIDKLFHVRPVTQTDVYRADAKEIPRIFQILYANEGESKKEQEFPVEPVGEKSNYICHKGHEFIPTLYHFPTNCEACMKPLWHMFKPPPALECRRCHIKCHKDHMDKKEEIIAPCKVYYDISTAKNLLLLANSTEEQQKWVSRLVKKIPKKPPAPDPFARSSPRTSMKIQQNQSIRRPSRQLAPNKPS

[31] = test system: Rho-associated protein kinase 2 (Homo sapiens), O75116 [M87A]; assay: Binding affinity to N-terminal His10-StrepII tagged human ROCK2 M87A mutant catalytic domain (1 to 553 residues) expressed in Sf9 insect cells assessed as change in melting temperature at 50 uM by SYPRO orange dye based thermal shift assay
[32] = biological target: Ribosomal protein S6 kinase alpha-6 (Homo sapiens) (UniProt Q9UK32); assay: Inhibition of human recombinant RSK4 at 125 nM
Ribosomal protein S6 kinase alpha-6 (Homo sapiens), sequence (Q9UK32 whole entry): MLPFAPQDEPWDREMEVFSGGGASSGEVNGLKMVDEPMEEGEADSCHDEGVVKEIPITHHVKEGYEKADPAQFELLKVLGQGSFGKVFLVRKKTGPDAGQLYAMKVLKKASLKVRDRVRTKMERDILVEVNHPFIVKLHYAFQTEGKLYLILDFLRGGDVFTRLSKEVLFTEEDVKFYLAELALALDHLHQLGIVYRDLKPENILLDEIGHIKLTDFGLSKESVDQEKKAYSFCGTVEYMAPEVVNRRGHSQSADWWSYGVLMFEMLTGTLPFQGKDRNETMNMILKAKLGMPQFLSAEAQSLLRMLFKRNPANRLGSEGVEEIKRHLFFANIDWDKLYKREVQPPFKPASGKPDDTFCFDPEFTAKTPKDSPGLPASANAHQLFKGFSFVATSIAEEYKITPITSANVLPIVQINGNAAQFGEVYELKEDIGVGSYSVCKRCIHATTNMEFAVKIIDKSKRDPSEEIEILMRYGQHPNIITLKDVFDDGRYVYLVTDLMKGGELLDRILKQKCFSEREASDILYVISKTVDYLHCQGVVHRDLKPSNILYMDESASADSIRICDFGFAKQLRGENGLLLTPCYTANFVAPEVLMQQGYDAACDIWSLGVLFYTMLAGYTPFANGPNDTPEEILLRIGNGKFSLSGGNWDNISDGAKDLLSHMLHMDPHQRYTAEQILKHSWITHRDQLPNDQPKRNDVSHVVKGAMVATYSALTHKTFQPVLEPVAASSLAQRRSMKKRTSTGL

[33] = biological target: Maternal embryonic leucine zipper kinase (Homo sapiens) (UniProt Q14680); assay: Inhibition of human recombinant MELK at 125 nM
[34] = biological target: Serine/threonine-protein kinase Chk1 (Homo sapiens) (UniProt O14757); assay: Inhibition of human recombinant CHK1 at 125 nM
Serine/threonine-protein kinase Chk1 (Homo sapiens), sequence (O14757 whole entry): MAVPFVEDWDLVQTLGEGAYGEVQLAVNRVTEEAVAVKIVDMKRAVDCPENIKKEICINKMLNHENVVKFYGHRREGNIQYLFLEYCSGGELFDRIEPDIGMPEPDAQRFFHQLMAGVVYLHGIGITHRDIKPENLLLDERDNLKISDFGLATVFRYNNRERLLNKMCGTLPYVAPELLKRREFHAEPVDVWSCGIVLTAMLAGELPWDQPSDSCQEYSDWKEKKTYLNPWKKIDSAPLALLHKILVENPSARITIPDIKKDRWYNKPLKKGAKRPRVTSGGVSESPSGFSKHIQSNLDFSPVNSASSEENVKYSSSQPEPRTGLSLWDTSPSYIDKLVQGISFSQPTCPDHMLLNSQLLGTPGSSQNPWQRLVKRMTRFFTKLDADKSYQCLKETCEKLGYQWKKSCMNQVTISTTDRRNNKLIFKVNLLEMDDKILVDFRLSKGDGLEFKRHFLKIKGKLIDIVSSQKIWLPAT

[35] = biological target: 3-phosphoinositide-dependent protein kinase 1 (Homo sapiens) (UniProt O15530); assay: Inhibition of human recombinant PDK1 at 125 nM
3-phosphoinositide-dependent protein kinase 1 (Homo sapiens), sequence (O15530 whole entry, looked up): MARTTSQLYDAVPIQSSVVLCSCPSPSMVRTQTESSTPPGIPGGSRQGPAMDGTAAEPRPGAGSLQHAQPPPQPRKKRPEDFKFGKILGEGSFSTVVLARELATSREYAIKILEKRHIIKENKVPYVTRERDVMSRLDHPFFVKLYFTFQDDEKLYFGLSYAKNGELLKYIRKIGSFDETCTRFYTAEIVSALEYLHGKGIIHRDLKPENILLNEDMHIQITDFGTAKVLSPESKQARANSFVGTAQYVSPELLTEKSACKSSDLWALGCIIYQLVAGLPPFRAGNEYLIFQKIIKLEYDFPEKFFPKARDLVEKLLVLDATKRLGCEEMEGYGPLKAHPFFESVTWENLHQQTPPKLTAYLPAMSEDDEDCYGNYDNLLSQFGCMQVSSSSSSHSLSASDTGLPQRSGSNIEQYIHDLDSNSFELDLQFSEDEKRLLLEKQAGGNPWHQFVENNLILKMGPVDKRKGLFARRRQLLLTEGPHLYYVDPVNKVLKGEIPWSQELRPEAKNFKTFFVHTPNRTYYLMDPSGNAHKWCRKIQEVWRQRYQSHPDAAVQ

IC50 [1]: 6 nM
IC50 [8]: 7.19 µM
IC50 [9]: 4.44 µM
AUC(0-t) at 8 h [13]: 6240 ng·h/mL
Cmax [14]: 21600 ng/mL
clearance [15]: 29.3 mL/min/kg
IC50 [16]: 923 nM
IC50 [17]: 139 nM
IC50 [18]: 308 nM
IC50 [19]: > 10 µM
bioavailability [22]: < 1%
Drug uptake [23]: Active
inhibition [24]: Active
inhibition [25]: Active
inhibition [26]: Active
Activity [28]: Active
Activity [29]: inactive
Activity [30]: inactive
Activity [31]: inactive
inhibition [32]: Active
inhibition [33]: Active
inhibition [34]: Active
inhibition [35]: Active
Structure (SMILES): O=C1NCc2c1c1c3cc(O)ccc3[nH]c1c1[nH]c3ccccc3c21
Activity [2]: Active
Activity [3]: Active
Activity [4]: Active
inhibition [5]: Dose-Dependent Effect
Activity [6]: Non-Toxic
inhibition [7]: Dose-Dependent Effect
Activity [10]: Active
Activity [11]: Active
Activity [12]: Active
Ratio IC50 [20]: > 100
Ratio IC50 [21]: > 10
inhibition [27]: Active
